Conditions in all cases: Compound concentration 10 µM
Assay [1] has as its target T1, Alpha-2B adrenergic receptor (Homo sapiens) (UniProt P18089).
T1 sequence (whole entry): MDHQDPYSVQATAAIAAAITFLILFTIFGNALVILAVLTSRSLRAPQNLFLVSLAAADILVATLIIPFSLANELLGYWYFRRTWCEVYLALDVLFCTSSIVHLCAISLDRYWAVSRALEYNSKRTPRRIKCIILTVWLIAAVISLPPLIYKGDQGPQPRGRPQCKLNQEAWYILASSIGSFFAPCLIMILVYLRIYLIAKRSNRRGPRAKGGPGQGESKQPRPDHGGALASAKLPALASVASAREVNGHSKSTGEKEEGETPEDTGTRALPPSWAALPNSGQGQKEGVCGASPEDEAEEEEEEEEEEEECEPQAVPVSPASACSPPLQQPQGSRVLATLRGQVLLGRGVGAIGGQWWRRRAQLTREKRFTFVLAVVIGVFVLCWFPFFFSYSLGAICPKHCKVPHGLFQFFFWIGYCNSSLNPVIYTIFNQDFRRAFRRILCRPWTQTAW
Description: PDSP Primary Binding target: ADRA2B - Compounds are tested at 10 uM concentration, plate are incubated at room temperature in the dark for 90 minutes. Reaction are stopped by vacuum filtration onto 0.3% polyethyleneimine soaked filter mats using Filtermate harvester. Scintilation cocktail is then melted onto microwave-dried filters on a hot plate and the radio activity is counted in Microbia counter.

For assay [2], the target named is Beta-1 adrenergic receptor (Homo sapiens) (UniProt P08588).
Sequence of Beta-1 adrenergic receptor (Homo sapiens) (P08588 whole entry, looked up): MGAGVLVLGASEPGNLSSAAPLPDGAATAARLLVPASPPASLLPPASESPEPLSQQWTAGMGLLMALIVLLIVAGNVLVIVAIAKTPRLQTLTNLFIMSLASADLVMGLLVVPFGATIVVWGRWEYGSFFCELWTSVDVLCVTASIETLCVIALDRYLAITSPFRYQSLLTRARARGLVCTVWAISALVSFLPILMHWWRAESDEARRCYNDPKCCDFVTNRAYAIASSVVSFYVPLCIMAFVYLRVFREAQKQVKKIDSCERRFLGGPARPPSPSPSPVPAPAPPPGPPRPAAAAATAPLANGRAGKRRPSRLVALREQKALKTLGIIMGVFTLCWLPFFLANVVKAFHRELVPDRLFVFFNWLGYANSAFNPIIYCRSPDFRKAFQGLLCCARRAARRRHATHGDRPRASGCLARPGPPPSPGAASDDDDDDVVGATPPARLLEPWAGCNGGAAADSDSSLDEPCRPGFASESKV
Description: PDSP Primary Binding target: ADRB1 - Compounds are tested at 10 uM concentration, plate are incubated at room temperature in the dark for 90 minutes. Reaction are stopped by vacuum filtration onto 0.3% polyethyleneimine soaked filter mats using Filtermate harvester. Scintilation cocktail is then melted onto microwave-dried filters on a hot plate and the radio activity is counted in Microbia counter.
In assay [3] the target is Beta-2 adrenergic receptor (Homo sapiens) (UniProt P07550).
Sequence of Beta-2 adrenergic receptor (Homo sapiens) (P07550 whole entry, looked up): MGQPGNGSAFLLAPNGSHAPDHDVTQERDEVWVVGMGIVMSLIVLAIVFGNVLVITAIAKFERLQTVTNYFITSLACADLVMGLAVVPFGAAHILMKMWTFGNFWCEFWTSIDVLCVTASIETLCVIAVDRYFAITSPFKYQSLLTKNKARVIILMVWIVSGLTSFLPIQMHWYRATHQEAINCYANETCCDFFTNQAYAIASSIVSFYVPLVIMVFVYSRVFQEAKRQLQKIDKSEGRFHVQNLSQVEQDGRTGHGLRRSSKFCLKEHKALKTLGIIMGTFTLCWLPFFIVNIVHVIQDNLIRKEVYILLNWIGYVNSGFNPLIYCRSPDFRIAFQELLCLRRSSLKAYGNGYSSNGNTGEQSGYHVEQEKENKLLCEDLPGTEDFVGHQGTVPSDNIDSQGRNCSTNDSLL
Description: PDSP Primary Binding target: ADRB2 - Compounds are tested at 10 uM concentration, plate are incubated at room temperature in the dark for 90 minutes. Reaction are stopped by vacuum filtration onto 0.3% polyethyleneimine soaked filter mats using Filtermate harvester. Scintilation cocktail is then melted onto microwave-dried filters on a hot plate and the radio activity is counted in Microbia counter.
Assay [4] deals with T2, Muscarinic acetylcholine receptor M5 (Homo sapiens) (UniProt P08912).
T2 sequence (whole entry): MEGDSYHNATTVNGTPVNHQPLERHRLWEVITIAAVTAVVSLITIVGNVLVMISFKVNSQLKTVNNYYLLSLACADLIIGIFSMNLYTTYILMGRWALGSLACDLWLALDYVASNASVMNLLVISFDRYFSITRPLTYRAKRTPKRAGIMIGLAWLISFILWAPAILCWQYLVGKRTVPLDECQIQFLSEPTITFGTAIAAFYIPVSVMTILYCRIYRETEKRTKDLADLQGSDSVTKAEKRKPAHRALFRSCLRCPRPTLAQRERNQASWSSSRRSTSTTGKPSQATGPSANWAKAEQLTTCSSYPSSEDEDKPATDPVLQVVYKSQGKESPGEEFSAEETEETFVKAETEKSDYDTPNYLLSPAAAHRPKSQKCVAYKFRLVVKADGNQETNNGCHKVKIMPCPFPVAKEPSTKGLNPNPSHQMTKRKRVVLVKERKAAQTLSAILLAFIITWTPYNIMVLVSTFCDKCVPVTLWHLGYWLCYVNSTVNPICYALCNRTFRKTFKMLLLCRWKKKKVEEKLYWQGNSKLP
Description: PDSP Primary Binding target: CHRM5 - Compounds are tested at 10 uM concentration, plate are incubated at room temperature in the dark for 90 minutes. Reaction are stopped by vacuum filtration onto 0.3% polyethyleneimine soaked filter mats using Filtermate harvester. Scintilation cocktail is then melted onto microwave-dried filters on a hot plate and the radio activity is counted in Microbia counter.

The target of assay [5] is D(1A) dopamine receptor (Homo sapiens) (UniProt P21728).
Sequence of D(1A) dopamine receptor (Homo sapiens) (P21728 whole entry): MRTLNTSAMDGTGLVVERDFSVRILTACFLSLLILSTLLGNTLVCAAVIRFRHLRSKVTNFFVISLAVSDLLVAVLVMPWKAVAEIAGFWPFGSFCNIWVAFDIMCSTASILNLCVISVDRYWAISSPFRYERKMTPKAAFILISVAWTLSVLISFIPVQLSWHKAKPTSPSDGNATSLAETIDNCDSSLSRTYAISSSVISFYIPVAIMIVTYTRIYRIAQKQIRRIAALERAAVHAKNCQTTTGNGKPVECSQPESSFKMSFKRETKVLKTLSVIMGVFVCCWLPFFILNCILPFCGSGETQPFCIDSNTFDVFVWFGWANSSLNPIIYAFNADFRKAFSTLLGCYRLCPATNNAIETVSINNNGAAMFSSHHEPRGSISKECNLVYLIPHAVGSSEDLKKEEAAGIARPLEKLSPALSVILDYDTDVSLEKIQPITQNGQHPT
Description: PDSP Primary Binding target: DRD1 - Compounds are tested at 10 uM concentration, plate are incubated at room temperature in the dark for 90 minutes. Reaction are stopped by vacuum filtration onto 0.3% polyethyleneimine soaked filter mats using Filtermate harvester. Scintilation cocktail is then melted onto microwave-dried filters on a hot plate and the radio activity is counted in Microbia counter.
For assay [6], the target named is D(2) dopamine receptor (Homo sapiens) (UniProt P14416).
Sequence of D(2) dopamine receptor (Homo sapiens) (P14416 whole entry): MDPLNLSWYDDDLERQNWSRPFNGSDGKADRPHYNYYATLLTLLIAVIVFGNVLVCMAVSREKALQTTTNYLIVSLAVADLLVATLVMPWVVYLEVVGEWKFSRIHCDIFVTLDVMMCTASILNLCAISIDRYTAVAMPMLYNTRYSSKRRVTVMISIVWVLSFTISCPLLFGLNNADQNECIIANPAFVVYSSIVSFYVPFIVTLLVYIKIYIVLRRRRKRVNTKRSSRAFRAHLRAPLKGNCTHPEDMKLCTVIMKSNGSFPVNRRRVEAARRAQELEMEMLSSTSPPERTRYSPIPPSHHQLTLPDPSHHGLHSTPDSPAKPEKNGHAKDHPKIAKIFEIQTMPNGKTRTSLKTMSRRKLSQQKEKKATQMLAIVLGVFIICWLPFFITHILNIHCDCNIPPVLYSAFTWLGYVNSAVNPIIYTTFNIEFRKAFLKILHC
Description: PDSP Primary Binding target: DRD2 - Compounds are tested at 10 uM concentration, plate are incubated at room temperature in the dark for 90 minutes. Reaction are stopped by vacuum filtration onto 0.3% polyethyleneimine soaked filter mats using Filtermate harvester. Scintilation cocktail is then melted onto microwave-dried filters on a hot plate and the radio activity is counted in Microbia counter.
The target of assay [7] is D(1B) dopamine receptor (Homo sapiens) (UniProt P21918).
Description: PDSP Primary Binding target: DRD5 - Compounds are tested at 10 uM concentration, plate are incubated at room temperature in the dark for 90 minutes. Reaction are stopped by vacuum filtration onto 0.3% polyethyleneimine soaked filter mats using Filtermate harvester. Scintilation cocktail is then melted onto microwave-dried filters on a hot plate and the radio activity is counted in Microbia counter.
The target of assay [8] is 5-hydroxytryptamine receptor 1B (Homo sapiens) (UniProt P28222).
Sequence of 5-hydroxytryptamine receptor 1B (Homo sapiens) (P28222 whole entry): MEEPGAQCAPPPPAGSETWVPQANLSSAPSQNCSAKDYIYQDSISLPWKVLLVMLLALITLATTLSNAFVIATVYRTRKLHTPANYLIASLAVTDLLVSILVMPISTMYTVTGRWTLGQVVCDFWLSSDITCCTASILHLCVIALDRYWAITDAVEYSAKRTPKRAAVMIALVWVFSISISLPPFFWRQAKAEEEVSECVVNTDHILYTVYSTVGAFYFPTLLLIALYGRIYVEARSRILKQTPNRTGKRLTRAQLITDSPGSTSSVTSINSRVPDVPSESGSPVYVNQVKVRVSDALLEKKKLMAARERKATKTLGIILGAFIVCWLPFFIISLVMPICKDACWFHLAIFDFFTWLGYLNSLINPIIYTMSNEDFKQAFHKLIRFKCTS
Description: PDSP Primary Binding target: HTR1B - Compounds are tested at 10 uM concentration, plate are incubated at room temperature in the dark for 90 minutes. Reaction are stopped by vacuum filtration onto 0.3% polyethyleneimine soaked filter mats using Filtermate harvester. Scintilation cocktail is then melted onto microwave-dried filters on a hot plate and the radio activity is counted in Microbia counter.
The target in assay [9] is 5-hydroxytryptamine receptor 1D (Homo sapiens) (UniProt P28221).
Sequence of 5-hydroxytryptamine receptor 1D (Homo sapiens) (P28221 whole entry): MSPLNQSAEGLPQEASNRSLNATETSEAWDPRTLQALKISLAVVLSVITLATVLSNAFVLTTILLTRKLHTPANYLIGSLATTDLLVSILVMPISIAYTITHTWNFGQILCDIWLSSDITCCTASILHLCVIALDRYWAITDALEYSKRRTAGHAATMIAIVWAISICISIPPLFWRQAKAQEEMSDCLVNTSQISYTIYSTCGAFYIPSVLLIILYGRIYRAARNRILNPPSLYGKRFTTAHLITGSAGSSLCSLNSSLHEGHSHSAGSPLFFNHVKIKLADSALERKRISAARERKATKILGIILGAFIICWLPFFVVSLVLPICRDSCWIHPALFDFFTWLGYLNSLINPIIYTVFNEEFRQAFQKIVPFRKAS
Description: PDSP Primary Binding target: HTR1D - Compounds are tested at 10 uM concentration, plate are incubated at room temperature in the dark for 90 minutes. Reaction are stopped by vacuum filtration onto 0.3% polyethyleneimine soaked filter mats using Filtermate harvester. Scintilation cocktail is then melted onto microwave-dried filters on a hot plate and the radio activity is counted in Microbia counter.
Assay [10] addresses 5-hydroxytryptamine receptor 2B (Homo sapiens) (UniProt P41595).
Description: PDSP Primary Binding target: HTR2B - Compounds are tested at 10 uM concentration, plate are incubated at room temperature in the dark for 90 minutes. Reaction are stopped by vacuum filtration onto 0.3% polyethyleneimine soaked filter mats using Filtermate harvester. Scintilation cocktail is then melted onto microwave-dried filters on a hot plate and the radio activity is counted in Microbia counter.
Assay [11] has as its target Mu-type opioid receptor (Homo sapiens) (UniProt P35372).
Description: PDSP Primary Binding target: OPRM1 - Compounds are tested at 10 uM concentration, plate are incubated at room temperature in the dark for 90 minutes. Reaction are stopped by vacuum filtration onto 0.3% polyethyleneimine soaked filter mats using Filtermate harvester. Scintilation cocktail is then melted onto microwave-dried filters on a hot plate and the radio activity is counted in Microbia counter.
The target of assay [12] is Sigma non-opioid intracellular receptor 1 (Homo sapiens) (UniProt Q99720).
Sequence of Sigma non-opioid intracellular receptor 1 (Homo sapiens) (Q99720 whole entry): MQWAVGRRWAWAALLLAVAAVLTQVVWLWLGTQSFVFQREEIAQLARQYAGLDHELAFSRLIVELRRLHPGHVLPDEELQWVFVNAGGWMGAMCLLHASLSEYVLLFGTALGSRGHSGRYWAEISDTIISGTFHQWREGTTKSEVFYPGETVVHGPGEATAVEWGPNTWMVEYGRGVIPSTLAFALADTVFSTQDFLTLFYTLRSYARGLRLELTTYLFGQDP
Description: PDSP Primary Binding target: SIGMAR1 - Compounds are tested at 10 uM concentration, plate are incubated at room temperature in the dark for 90 minutes. Reaction are stopped by vacuum filtration onto 0.3% polyethyleneimine soaked filter mats using Filtermate harvester. Scintilation cocktail is then melted onto microwave-dried filters on a hot plate and the radio activity is counted in Microbia counter.
Assay [13] addresses Sodium-dependent dopamine transporter (Homo sapiens) (UniProt Q01959).
Description: PDSP Primary Binding target: SLC6A3 - Compounds are tested at 10 uM concentration, plate are incubated at room temperature in the dark for 90 minutes. Reaction are stopped by vacuum filtration onto 0.3% polyethyleneimine soaked filter mats using Filtermate harvester. Scintilation cocktail is then melted onto microwave-dried filters on a hot plate and the radio activity is counted in Microbia counter.
Assay [14] concerns the target Sigma intracellular receptor 2 (Homo sapiens) (UniProt Q5BJF2).
Description: PDSP Primary Binding target: TMEM97 - Compounds are tested at 10 uM concentration, plate are incubated at room temperature in the dark for 90 minutes. Reaction are stopped by vacuum filtration onto 0.3% polyethyleneimine soaked filter mats using Filtermate harvester. Scintilation cocktail is then melted onto microwave-dried filters on a hot plate and the radio activity is counted in Microbia counter.
Assay [15] has as its target Translocator protein (Homo sapiens) (UniProt P30536).
Description: PDSP Primary Binding target: TSPO - Compounds are tested at 10 uM concentration, plate are incubated at room temperature in the dark for 90 minutes. Reaction are stopped by vacuum filtration onto 0.3% polyethyleneimine soaked filter mats using Filtermate harvester. Scintilation cocktail is then melted onto microwave-dried filters on a hot plate and the radio activity is counted in Microbia counter.
The target of assay [16] is T3, 5-hydroxytryptamine receptor 2C (Homo sapiens) (UniProt P28335).
T3 sequence (whole entry): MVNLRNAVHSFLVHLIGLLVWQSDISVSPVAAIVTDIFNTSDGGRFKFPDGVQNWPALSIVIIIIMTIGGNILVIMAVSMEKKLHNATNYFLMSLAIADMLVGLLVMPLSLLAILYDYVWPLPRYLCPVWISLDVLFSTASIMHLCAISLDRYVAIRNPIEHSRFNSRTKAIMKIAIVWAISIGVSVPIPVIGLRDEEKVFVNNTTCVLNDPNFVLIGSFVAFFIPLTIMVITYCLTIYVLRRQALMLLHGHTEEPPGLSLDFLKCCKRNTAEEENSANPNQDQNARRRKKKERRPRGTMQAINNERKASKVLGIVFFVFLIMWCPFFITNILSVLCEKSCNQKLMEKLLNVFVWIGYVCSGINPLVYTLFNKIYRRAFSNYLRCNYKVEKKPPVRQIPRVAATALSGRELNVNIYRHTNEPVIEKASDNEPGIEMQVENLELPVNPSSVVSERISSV
Description: PDSP Primary Binding target: HTR2C - Compounds are tested at 10 uM concentration, plate are incubated at room temperature in the dark for 90 minutes. Reaction are stopped by vacuum filtration onto 0.3% polyethyleneimine soaked filter mats using Filtermate harvester. Scintilation cocktail is then melted onto microwave-dried filters on a hot plate and the radio activity is counted in Microbia counter.

Assay [17] has as its target 5-hydroxytryptamine receptor 2A (Homo sapiens) (UniProt P28223).
Description: PDSP Primary Binding target: HTR2A - Compounds are tested at 10 uM concentration, plate are incubated at room temperature in the dark for 90 minutes. Reaction are stopped by vacuum filtration onto 0.3% polyethyleneimine soaked filter mats using Filtermate harvester. Scintilation cocktail is then melted onto microwave-dried filters on a hot plate and the radio activity is counted in Microbia counter.
The target of assay [18] is Kappa-type opioid receptor (Homo sapiens) (UniProt P41145).
Sequence of Kappa-type opioid receptor (Homo sapiens) (P41145 whole entry): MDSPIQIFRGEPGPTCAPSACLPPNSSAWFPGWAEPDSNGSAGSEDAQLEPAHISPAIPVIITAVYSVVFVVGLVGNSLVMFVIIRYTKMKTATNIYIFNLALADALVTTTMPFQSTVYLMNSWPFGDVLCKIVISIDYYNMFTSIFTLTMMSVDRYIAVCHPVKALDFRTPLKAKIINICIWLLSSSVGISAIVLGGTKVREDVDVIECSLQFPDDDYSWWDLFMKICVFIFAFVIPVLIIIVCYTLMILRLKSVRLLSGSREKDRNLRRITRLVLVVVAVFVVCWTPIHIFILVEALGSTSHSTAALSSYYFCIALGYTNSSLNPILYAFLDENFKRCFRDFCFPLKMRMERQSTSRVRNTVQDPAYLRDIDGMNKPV
Description: PDSP Primary Binding target: OPRK1 - Compounds are tested at 10 uM concentration, plate are incubated at room temperature in the dark for 90 minutes. Reaction are stopped by vacuum filtration onto 0.3% polyethyleneimine soaked filter mats using Filtermate harvester. Scintilation cocktail is then melted onto microwave-dried filters on a hot plate and the radio activity is counted in Microbia counter.
Assay [19] concerns the target T4, Muscarinic acetylcholine receptor M1 (Homo sapiens) (UniProt P11229).
T4 sequence (whole entry): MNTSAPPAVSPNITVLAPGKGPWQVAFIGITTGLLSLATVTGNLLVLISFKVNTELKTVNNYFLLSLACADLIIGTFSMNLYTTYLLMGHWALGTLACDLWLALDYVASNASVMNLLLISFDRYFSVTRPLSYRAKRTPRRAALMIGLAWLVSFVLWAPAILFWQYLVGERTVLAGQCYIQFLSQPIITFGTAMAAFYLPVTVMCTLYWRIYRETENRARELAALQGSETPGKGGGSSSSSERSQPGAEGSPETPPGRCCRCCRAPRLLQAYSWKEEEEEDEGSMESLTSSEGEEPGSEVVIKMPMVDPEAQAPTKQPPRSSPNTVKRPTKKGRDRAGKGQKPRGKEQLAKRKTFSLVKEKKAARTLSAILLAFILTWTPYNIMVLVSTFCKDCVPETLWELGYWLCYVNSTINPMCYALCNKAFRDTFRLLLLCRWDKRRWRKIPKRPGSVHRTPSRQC
Description: PDSP Primary Binding target: CHRM1 - Compounds are tested at 10 uM concentration, plate are incubated at room temperature in the dark for 90 minutes. Reaction are stopped by vacuum filtration onto 0.3% polyethyleneimine soaked filter mats using Filtermate harvester. Scintilation cocktail is then melted onto microwave-dried filters on a hot plate and the radio activity is counted in Microbia counter.

Sequence of Mu-type opioid receptor (Homo sapiens) (P35372 whole entry): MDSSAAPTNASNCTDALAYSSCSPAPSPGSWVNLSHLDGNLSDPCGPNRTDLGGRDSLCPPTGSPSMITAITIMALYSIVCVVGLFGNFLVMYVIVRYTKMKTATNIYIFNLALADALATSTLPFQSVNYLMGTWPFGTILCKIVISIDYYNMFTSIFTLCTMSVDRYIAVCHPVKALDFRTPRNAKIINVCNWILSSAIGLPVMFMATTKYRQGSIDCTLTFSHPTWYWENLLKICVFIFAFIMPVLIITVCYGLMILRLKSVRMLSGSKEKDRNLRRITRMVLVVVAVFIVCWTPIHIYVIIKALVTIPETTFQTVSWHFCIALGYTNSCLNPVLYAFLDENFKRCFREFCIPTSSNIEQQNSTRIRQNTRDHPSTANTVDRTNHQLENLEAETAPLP
Sequence of Translocator protein (Homo sapiens) (P30536 whole entry): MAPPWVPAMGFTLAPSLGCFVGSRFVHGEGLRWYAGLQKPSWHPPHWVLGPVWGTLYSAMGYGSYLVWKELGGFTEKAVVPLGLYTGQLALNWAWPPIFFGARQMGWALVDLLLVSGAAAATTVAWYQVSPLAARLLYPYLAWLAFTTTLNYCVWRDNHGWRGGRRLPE
Sequence of 5-hydroxytryptamine receptor 2B (Homo sapiens) (P41595 whole entry): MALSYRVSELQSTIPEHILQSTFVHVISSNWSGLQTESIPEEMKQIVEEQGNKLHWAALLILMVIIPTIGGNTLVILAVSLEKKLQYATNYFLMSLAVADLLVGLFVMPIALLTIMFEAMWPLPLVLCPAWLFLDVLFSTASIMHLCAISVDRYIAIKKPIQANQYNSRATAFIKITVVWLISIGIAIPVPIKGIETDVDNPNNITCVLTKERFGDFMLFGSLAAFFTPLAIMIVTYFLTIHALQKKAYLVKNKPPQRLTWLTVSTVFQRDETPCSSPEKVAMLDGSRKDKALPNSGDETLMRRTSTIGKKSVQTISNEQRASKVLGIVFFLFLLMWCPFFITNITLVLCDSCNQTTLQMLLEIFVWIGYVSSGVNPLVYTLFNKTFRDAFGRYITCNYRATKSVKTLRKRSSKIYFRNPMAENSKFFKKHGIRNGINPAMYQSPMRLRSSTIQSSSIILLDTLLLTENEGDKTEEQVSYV
Sequence of Sodium-dependent dopamine transporter (Homo sapiens) (Q01959 whole entry): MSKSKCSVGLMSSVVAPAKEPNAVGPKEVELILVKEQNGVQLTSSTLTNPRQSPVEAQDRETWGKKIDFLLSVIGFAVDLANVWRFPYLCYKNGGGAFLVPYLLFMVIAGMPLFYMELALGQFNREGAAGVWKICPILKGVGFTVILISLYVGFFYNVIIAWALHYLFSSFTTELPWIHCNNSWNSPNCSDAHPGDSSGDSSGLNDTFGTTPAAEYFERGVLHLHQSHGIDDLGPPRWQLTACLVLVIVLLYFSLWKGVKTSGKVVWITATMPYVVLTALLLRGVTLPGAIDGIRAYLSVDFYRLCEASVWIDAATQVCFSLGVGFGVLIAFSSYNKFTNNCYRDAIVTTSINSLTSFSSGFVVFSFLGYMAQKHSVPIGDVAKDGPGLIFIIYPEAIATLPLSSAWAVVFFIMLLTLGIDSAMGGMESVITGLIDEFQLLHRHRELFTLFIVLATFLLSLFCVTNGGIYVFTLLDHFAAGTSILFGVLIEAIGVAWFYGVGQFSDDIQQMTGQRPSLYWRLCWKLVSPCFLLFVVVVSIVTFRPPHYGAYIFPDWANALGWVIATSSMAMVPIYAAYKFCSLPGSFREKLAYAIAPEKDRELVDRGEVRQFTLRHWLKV

In the case of `COc1cccc([C@H](O)C2CCN(CCc3ccc(F)cc3)CC2)c1OC`, the inhibition in [1] was 71.7%; in assay [2] it was 32.2%; in assay [3] it was 5.48%; in [4], -8.31%; in assay [5], 63.9%; in assay [6] it was 4.57%. Also, the inhibition was 4.09% in assay [7]; 27.7% in assay [8]; 73.8% in assay [9]; 89.1% in [10]; 8.06% in assay [11]; 3.05% in [12]. The results for the inhibition in [13], in assay [14] and in [15] were 15.6%, 95.9% and -6.18%, respectively.
For `CCCCc1nc(Cl)c(CO)n1Cc1ccc(-c2ccccc2-c2nnn[nH]2)cc1`, the inhibition is 8.7% in assay [2]; 0.95% in assay [4]; 10.3% in assay [5]; 23.9% in assay [6]; -1.67% in assay [7]; -3.17% in assay [8]. Besides, the inhibition in assay [9] is 43.4%; in assay [10], 37.1%; in [16] it was 55%; in [11], -1.17%; in assay [12], 9.91%; in [14], 27.4%. In addition, in assay [15], the inhibition is 5.8%.
Consider `OC1(c2ccc(Cl)cc2)CCN(Cc2c[nH]c3ccccc23)CC1`, for which the inhibition is 83.8% in assay [1]; 38.7% in [2]; -1.99% in assay [3]; 70.8% in assay [4]; 70.3% in assay [5]; 90.2% in [6]. Also, the inhibition in assay [7] is 40.1%; in [8], 19.3%; in assay [9], 46.1%; in assay [17], 66.9%; in assay [10], 73.8%; in assay [16], 18.8%. The inhibition was 3.1% in assay [18]; 65% in assay [11]; 2.38% in assay [12]; 80% in [13]; 97.8% in assay [14]; -2.88% in assay [15].
Consider `O=C(c1cc2c(cc1F)OC(c1ccc(F)cc1)(c1ccc(Cl)cc1Cl)O2)N1CCOCC1` (centres undefined), for which the inhibition in [1] was 28.5%; in [2] it was 8.99%; in assay [3] it was 5.79%; in assay [4] it was -6.56%; in assay [5], 48%; in [6], 5.49%. In addition, the inhibition in assay [7] is 75.9%; in assay [8], 27.6%; in [9], 20.9%; in assay [17], 57.3%; in [10], 85.6%; in assay [16], 73.4%. Moreover, the inhibition is 71.4% in assay [18]; 52.7% in [11]; 48.5% in assay [12]; 59% in [13]; 72.4% in assay [14]; 49.3% in assay [15].
Take `O=C(Cc1ccc(Cl)c(Cl)c1)N1CCCC[C@H]1CN1CCCC1`: the inhibition in [1] is 34.8%; in assay [2], -3.57%; in assay [3], 7.92%; in assay [19], 9.74%; in assay [6], 44.5%; in assay [7], -9.99%. The inhibition was 10.4% in assay [8]; 14.8% in assay [9]; 6.03% in assay [17]; 35.7% in assay [10]; -3.64% in assay [16]; 99.7% in [18]. For the same compound, the inhibition was 49.6% in assay [11]; 94.7% in assay [12]; 52.7% in [13]; 92.3% in [14]; 8.29% in assay [15].
Turning to `Cc1cccc([C@H](C)c2c[nH]cn2)c1C`, the inhibition in [1] was 97.8%; in assay [2] it was 3.18%; in assay [3] it was 20.7%; in assay [4], 3.92%; in assay [5] it was -3.69%; in assay [6], 14.4%. Moreover, the inhibition in [7] is 11.4%; in [8], 31.3%; in [9] it was 145%; in assay [17], 26.8%; in [10] it was 51.3%; in [16], 14.5%. Moreover, the inhibition is 1.54% in assay [12], 39.2% in assay [13], 37.8% in assay [14] and -0.25% in assay [15].
As for `CN(C)C(=O)C(CCN1CCC(O)(c2ccc(Cl)cc2)CC1)(c1ccccc1)c1ccccc1`, the inhibition was -4.2% in assay [2]; 44.6% in [3]; 2.95% in assay [4]; 2.24% in [5]; 16.2% in assay [6]; 1.53% in assay [7]. In addition, the inhibition is 20.1% in [8]; 55.2% in [9]; 83.3% in assay [10]; 0.09% in assay [16]; 87.2% in [12]; 64.3% in [13]. Moreover, the inhibition in [14] is 95.5%; in assay [15], 50%.
`CCCCN1CCC(COC(=O)c2cc(Cl)c(N)c3c2OCCO3)CC1`: the inhibition in assay [1] is 33.3%; in [2] it was 10.7%; in [3], 14.1%; in assay [4], -7.37%; in assay [5] it was 3.42%; in [6], 43.7%. In addition, the inhibition in [7] was -0.98%; in assay [8] it was 35.3%; in assay [9] it was 54.6%; in [17] it was 62.2%; in assay [10], 68.3%; in [16], 58.2%. Also, the inhibition in assay [18] is 7.01%; in assay [11], 9.58%; in assay [12], 105%; in assay [13] it was 19.5%; in assay [14] it was 96.8%; in [15], 0.42%.
